Measurements published in US10213451B2, “Methods and compounds for modulating the secretion or expression of adhesion proteins or angiopoietins of cells” (PACIFIC ARROW LIMITED, priority 2004, dated 2019).
In brackets after ≈: the same amount, converted by molar mass. Like-named read-outs stand apart in the source and are kept apart here.

Columns and labels:
[1] = tested on: tumor growth; assay: MTT anticancer activity of Y, X and hydrolysis products (FIG. 4C); format: cell-based; conditions: for IC50: read-out: IC50, inhibits tumor growth / anticancer activity
In short: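 Tumour cell lines seeded 24 h beforehand (10,000–40,000/well by line), then exposed to drug for 48 h (HepG2, U2OS 72 h; MCF-7 96 h). MTT 0.5 mg/mL added for 1 h, formazan dissolved in DMSO, OD 490 nm. % growth relative to pre-treatment (T0) and control; % cytotoxicity used when TD<T0.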

[2] = tested on: CAM expression in ES2 cells; assay: Microarray gene expression, Table 4; format: cell-based, human; conditions: for inhibiting ratio to the control, genes related to the adhesion molecule: span over different probes of Table 4
Method: (§1) Y/D is the ratio (in folds) of gene expression in cells treated with compound Y as compared with those of the no drug control (D),
(§2) YM/D is the ratio of gene expression in cells treated with compound YM (ACH-Y, Y without sugar moiety) compared with those of the no drug control (D)
(§3) Cell culture and drug-treatment.: ES2 cells were seeded in a T-25 flask with 4.5 million cells per flask for 24 hours. Cell culture was replaced with fresh medium with xanifolia-Y (Y) or DMSO no drug control (D) for 24 hours. Cells were then harvested for RNA isolation. Three experiments were done.
(§4) RNA extraction, labeling, hybridization, and data analysis. RNA was extracted from tumor cells using the Qiagen RNeasy Kit. RNA quality and quantity was checked by the Agilent BioAnalyzer and the NanoDrop® ND-1000 spectrophotometer respectively before further manipulation. The first and second cDNA strands were synthesized from 20 ng of total RNA using the Affymetrix T7 oligo(dT) primer protocol and kit for the two-cycle amplification. To produce amplified biotin-labeled-cRNA, the cDNA was […] by in vitro transcription using the MegaScript kit from Ambion. 15.0 μg of the labeled cRNA was fragmented and re-checked for concentration using the NanoDrop® ND-1000 spectrophotometer. A hybridization cocktail containing Affymetrix spike-in controls and fragmented labeled cRNA was loaded onto the Human U133 Plus 2.0 GeneChip® oligonucleotide array. The Affymetrix array (Affymetrix, Inc. Santa Clara, Calif.) is comprised of over 1,300,000 unique oligonucleotide features that represent greater than 38,500 well-substantiated human genes. The array was hybridized for 16 hours at 45° C. with rotation at 60 rpm then washed and stained with a strepavidin, R-phycoerythrin conjugate stain on the Affymetrix Fluidicis Station 450. Signal amplification was done using biotinylated antistreptavidin. The arrays were scanned using the GeneChip® 3000 confocal laser scanner with autoloader. The images were analyzed and quality control metrics recorded using Affymetrix GCOS software version 1.4. Lastly, the expression value for each gene was calculated using dChip PM-only model based or Plier algorithm.
(§5) Pairwise comparisons were made as follows: Treated vs. Control (Y vs. D), Modified Drug vs Control (YM/ACY-H vs. D) and Treated vs. Modified Drug (Y vs. YM/ACH-Y) Cel files analyzed using the Bioconductor package of R Statistical programming. Limma analysis generated a reasonable number of changing genes between the samples.
(§6) The raw data in the .CEL files were normalized by the GCRMA method (robust multi-array analysis). It is implemented in Bioconductor (http://www.bioconductor.org/). The raw signal intensity data were normalized, background corrected and summarized based on certain statistical models, and an expression value, in log 2-scale, is obtained per chip per probe set. Then the null hypothesis was tested that there's no significant changes in gene expression between the treatment pairs. This was done by LIMMA and is also implemented in Bioconductor. It uses empirical Bayes method to estimate the variance in gene expression. One comparison was made, namely, High Grade vs. Low Grade. The raw p-values were adjusted by the Benjamnin-Hochberg method for false discovery rate (FDR) control. All data sets contained a significant number of genes with a p-value less than 0.05, which is that the probability that a gene is NOT differential expressed (false positive) is 1:20.

[3] = tested on: cadherins expression in ES2 cells; assay: Microarray gene expression, Table 8; format: cell-based, human; conditions: for CTNNB1 catenin (cadherin-associated protein), beta 1, 88 kDa, gene expression ratio to no drug control (D): probe 201533_at; for CTNNAL1 catenin (cadherin-associated protein), alpha-like 1, gene expression ratio to no drug control (D): probe 202468_s_at; for CDH2 cadherin 2, type 1, N-cadherin (neuronal), gene expression ratio to no drug control (D): probe 203440_at; for CDH5 cadherin 5, type 2, VE-cadherin, gene expression ratio to no drug control (D): probe 204677_at; for CDH12 cadherin 12, type 2 (N-cadherin 2), gene expression ratio to no drug control (D): probe 207149_at; for CTNND1 catenin (cadherin-associated, protein), delta 1, gene expression ratio to no drug control (D): probe 208407_s_at; for CTNNA1 catenin (cadherin-associated protein), alpha 1, 102 kDa, gene expression ratio to no drug control (D): probe 210844_x_at
Method: as §1, §2, §3, §4, §5, §6

[4] = tested on: thrombospondin in ES2 cells; assay: Microarray gene expression, Table 15; format: cell-based, human
Method: as §1, §2, §3, §4, §5, §6

[5] = tested on: insulin-like growth factor binding protein expression in ES2 cells; assay: Microarray gene expression, Table 16; format: cell-based, human; conditions: for IGFBP7 insulin-like growth factor binding protein 7, gene expression ratio to no drug control (D): probe 201163_s_at; for IGFBP4 insulin-like growth factor binding protein 4, gene expression ratio to no drug control (D): probe 201508_at; for IGFBP6 insulin-like growth factor binding protein 6, gene expression ratio to no drug control (D): probe 203851_at; for IGFBP1 insulin-like growth factor binding protein 1, gene expression ratio to no drug control (D): probe 205302_at
Method: as §1, §2, §3, §4, §5, §6

[6] = tested on: potassium channel, subfamily U, protein expression in ES2 cells; assay: Microarray gene expression, Table 18; format: cell-based, human; conditions: probe 237273_at
Method: as §1, §2, §3
RNA extraction, labeling, hybridization, and data analysis. RNA was extracted from tumor cells using the Qiagen RNeasy Kit. RNA quality and quantity was checked by the Agilent BioAnalyzer and the NanoDrop® ND-1000 spectrophotometer respectively before further manipulation. […] The images were analyzed and quality control metrics recorded using Affymetrix GCOS software version 1.4. Lastly, the expression value for each gene was calculated using dChip PM-only model based or Plier algorithm.
Pairwise comparisons were made as follows: Treated vs. Control (Y vs. D), Modified Drug vs Control (YM/ACY-H vs. D) and Treated vs. Modified Drug (Y vs. YM/ACH-Y) Cel files analyzed using the Bioconductor package of R Statistical programming. […]

Row | Compound | IC50 ([1]; FIG. 4C) [µg/mL] | ALCAM activated leukocyte cell adhesion molecule, gene expression ratio to no drug control (D) ([2]; probe 201951_at) [folds] | ALCAM activated leukocyte cell adhesion molecule, gene expression ratio to no drug control (D) ([2]; probe 201952_at) [folds] | SCAMP1 secretory carrier membrane protein 1, gene expression ratio to no drug control (D) ([2]; probe 206667_s_at) [folds] | SCAMP1 secretory carrier membrane protein 1, gene expression ratio to no drug control (D) ([2]; probe 212416_at) [folds] | SCAMP1 secretory carrier membrane protein 1, gene expression ratio to no drug control (D) ([2]; probe 212417_at) [folds] | SCAMP1 secretory carrier membrane protein 1, gene expression ratio to no drug control (D) ([2]; probe 212425_at) [folds] | TICAM2 toll-like receptor adaptor molecule 2, gene expression ratio to no drug control (D) ([2]; probe 228234_at) [folds] | TICAM2 toll-like receptor adaptor molecule 2, gene expression ratio to no drug control (D) ([2]; probe 239431_at) [folds] | ALCAM activated leukocyte cell adhesion molecule, gene expression ratio to no drug control (D) ([2]; probe 240655_at) [folds] | inhibiting ratio to the control, genes related to the adhesion molecule [2] [folds] | CTNNB1 catenin (cadherin-associated protein), beta 1, 88 kDa, gene expression ratio to no drug control (D) [3] [folds] | CTNNAL1 catenin (cadherin-associated protein), alpha-like 1, gene expression ratio to no drug control (D) [3] [folds] | CDH2 cadherin 2, type 1, N-cadherin (neuronal), gene expression ratio to no drug control (D) [3] [folds] | CDH5 cadherin 5, type 2, VE-cadherin, gene expression ratio to no drug control (D) [3] [folds] | CDH13 cadherin 13, H-cadherin (heart), gene expression ratio to no drug control (D) ([3]; probe 204726_at) [folds] | CDH12 cadherin 12, type 2 (N-cadherin 2), gene expression ratio to no drug control (D) [3] [folds] | CTNND1 catenin (cadherin-associated, protein), delta 1, gene expression ratio to no drug control (D) [3] [folds] | CTNNA1 catenin (cadherin-associated protein), alpha 1, 102 kDa, gene expression ratio to no drug control (D) [3] [folds] | CDH13 cadherin 13, H-cadherin (heart), gene expression ratio to no drug control (D) ([3]; probe 244091_at) [folds] | other results
1 | C/C=C(/C)C(=O)O[C@H]1[C@H](OC(=O)/C(C)=C\C)[C@@]2(CO)C(CC1(C)C)C1=CCC3[C@@]4(C)CC[C@H](O)C(C)(C)C4CC[C@@]3(C)[C@]1(C)[C@@H](O)[C@H]2O (stereo partly drawn) [ACH-Y] | 9.5 (≈ 14.2 µM) | −1.7 | −1.4 | −1.5 | −1.1 | −1.4 | −1.5 | −1.3 | −1.3 | −1.3 | −1.1 to −1.7 | 1.2 | −1.6 | 1.0 | −1.1 | −1.7 | −2.2 | −1.7 | −1.2 | −1.7 | MTT activities of hydrolysed products of compound Y ([1]; FIG. 4C, 4D): very weak; anticancer activity retained after removal of sugars from Y ([1]; relative to Y): 40%; THBS1 thrombospondin 1, gene expression ratio to no drug control (D) ([4]; probe 201108_s_at): −2.2 folds; THBS1 thrombospondin 1, gene expression ratio to no drug control (D) ([4]; probe 201109_s_at): −6.2 folds; THBS1 thrombospondin 1, gene expression ratio to no drug control (D) ([4]; probe 201110_s_at): −4.5 folds; IGFBP7 insulin-like growth factor binding protein 7, gene expression ratio to no drug control (D) [5]: −2.7 folds; IGFBP4 insulin-like growth factor binding protein 4, gene expression ratio to no drug control (D) [5]: −2.4 folds; IGFBP6 insulin-like growth factor binding protein 6, gene expression ratio to no drug control (D) [5]: −1.8 folds; IGFBP1 insulin-like growth factor binding protein 1, gene expression ratio to no drug control (D) [5]: −1.8 folds; IGFBP3 insulin-like growth factor binding protein 3, gene expression ratio to no drug control (D) ([5]; probe 210095_s_at): −3.5 folds; IGFBP3 insulin-like growth factor binding protein 3, gene expression ratio to no drug control (D) ([5]; probe 212143_s_at): −5.3 folds; KCNU1 potassium channel, subfamily U, member 1, gene expression ratio to no drug control (D) [6]: −1.9 folds
2 | C/C=C(/C)C(=O)O[C@H]1[C@H](OC(=O)/C(C)=C\C)[C@@]2(CO)C(CC1(C)C)C1=CCC3[C@@]4(C)CC[C@H](O[C@@H]5OC(C(=O)O)[C@@H](O)C(O[C@@H]6O[C@@H](CO)C(O)C6O)C5O[C@@H]5OC(CO)[C@H](O)C(O)C5O)C(C)(C)C4CC[C@@]3(C)[C@]1(C)[C@@H](O)[C@H]2O (stereo partly drawn) [Xanifolia-Y, 3-O-[β-D-galactopyranosyl (1→2)]-α-L-arabinofuranosy (1→3)-β-D-glucuronopyranosyl-21,22-O-diangeloyl-3β, 15α, 16α, 21β, 22α, 28-hexahydroxyolean-12-ene] | 4 (≈ 3.5 µM) | −1.9 | −1.9 | −1.3 | −1.3 | −1.4 | −1.7 | −1.3 | −1.3 | −1.6 | −1.3 to −1.9 | −1.5 | −1.9 | −1.4 | −1.5 | −1.8 | −1.7 | −1.5 | −1.4 | −2.0 | IC50 [1]: 1.5 to 4.5 µg/mL (≈ 1.31 to 3.94 µM); THBS1 thrombospondin 1, gene expression ratio to no drug control (D) ([4]; probe 201108_s_at): −1.7 folds; THBS1 thrombospondin 1, gene expression ratio to no drug control (D) ([4]; probe 201109_s_at): −2.0 folds; THBS1 thrombospondin 1, gene expression ratio to no drug control (D) ([4]; probe 201110_s_at): −1.8 folds; IGFBP7 insulin-like growth factor binding protein 7, gene expression ratio to no drug control (D) [5]: −1.4 folds; IGFBP4 insulin-like growth factor binding protein 4, gene expression ratio to no drug control (D) [5]: −1.7 folds; IGFBP6 insulin-like growth factor binding protein 6, gene expression ratio to no drug control (D) [5]: −1.3 folds; IGFBP1 insulin-like growth factor binding protein 1, gene expression ratio to no drug control (D) [5]: −1.7 folds; IGFBP3 insulin-like growth factor binding protein 3, gene expression ratio to no drug control (D) ([5]; probe 210095_s_at): −4.0 folds; IGFBP3 insulin-like growth factor binding protein 3, gene expression ratio to no drug control (D) ([5]; probe 212143_s_at): −3.7 folds; KCNU1 potassium channel, subfamily U, member 1, gene expression ratio to no drug control (D) [6]: −4.0 folds
